Assay results taken from patent US9995734B2, “Human T cell line assay for evaluating the immunologic identity of glatiramer acetate preparations” (Mylan Inc., priority 2013, dated 2018).

Key:
Donor 3 GMA T-Cell Lines = assay: ATP proliferation assay (CellTiter Glo), Donor 3 GMA T-cell lines, incl. reactivity to non-canonical GA peptides; format: cell-based, human
Donor 1 COP T-Cell Lines = assay: ATP proliferation assay (CellTiter Glo), Donor 1 COP T-cell lines, incl. reactivity to non-canonical GA peptides; format: cell-based, human; settings: for response to GMA in comparison to COP: 10 μg/mL dose; for ATP Proliferation Assay, Mean: Day 56, second assay; for ATP proliferation assay / luminescent ATP proliferation assay, mean: Day 56; for ATP proliferation assay: 48 hours after stimulation; for luminescent ATP proliferation assay, mean: no antigen 5673 (Table 9); for Proliferation (luminescent ATP assay), Mean: Day 56 of culturing
Protocol: Proliferation was evaluated by measuring ATP content using a luminescent method (CellTiter Glo Luminescent Cell Viability Assay, Promega, Madison, Wis., cat. #G7571) or by measuring BrdU uptake by ELISA (Millipore cat. #2752), in both cases following kit instructions. A split well format was used. Cells in each well were resuspended and 65 μl transferred to the wells of each of two new U-bottom 96-well plates, to generate the replicate plates. For the initial screening, the original 96-well plate received mitomycin-treated autologous PBMC as APC plus 10 μg/mL antigen (GA). A first replicate plate received 100 μl., mitomycin-treated PBMC alone (2×10^5), and no antigen, and a second replicate plate received 100 μL mitomycin-treated PBMC plus GA at a final concentration of 10 μg/mL. Therefore, all three plates received autologous APC (PBMC) treated with mitomycin C to prevent cell division. […] The latter two plates were incubated for 3 days at 37° C., 6% CO2 before adding CellTiter Glo or BrdU and measuring signal. IL-2 was added at 10 U/mL to the original 96-well plate for expansion on Day 17. For subsequent screenings, mitomycin-treated EBV-transformed autologous B-LCL (2×10^5 to 5×10^5 cells/mL) were used as APC.
COP-responsive T-cell lines were obtained from Donor 1. In the initial stimulation, isolated PBMC were plated at 1×10^5 cells per well (5×10^5 cells/mL) with 10 μg/mL Copaxone and cultured as described above. IL-2 was added to all wells on Days 4 and 7 of culture, and the wells screened for reactivity on Day 14 using a luminescent proliferation assay in split well format. The original plate was restimulated, and IL-2 added 4 days after restimulation.
(§1) T-cell line 222-2D8, generated from Donor 1 by initial stimulation with COP, was shown in at least two experiments to proliferate comparably following restimulation with GMA and COP. […] ATP levels were measured at 48 hours after stimulation. The control in the GMA series was no antigen, and the control in the COP series was MBP. The response to GMA in comparison to COP at the 10 μg/mL dose in this assay was 103.4%.
In a second ATP proliferation assay, carried out on Day 56 or culturing following stimulation with 1, 3, or 10 μg/mL of GMA or COP, the response to GMA in comparison to COP at the 10 μg/mL dose was 107.1%.
as §1, with “line 222-2F1,” for “line 222-2D8,”, “Donor 222” for “Donor 1”, “was 85.1%.” for “was 103.4%.”
On Day 56 of culturing, after six total rounds of stimulation, cell line 222-2F12 was assayed for proliferation in response to stimulation with GA and a series of non-canonical peptides. For the assay, 0, 3, 10, or 30 μg/mL of each of peptides GL 14, GLT 631, GAT 111, and GAT 631, COP, and GMA, were added to the T-cell lines at 1×10^5 cells/mL, in the presence of mitomycin C-treated autologous B-LCL. Proliferation was measured by luminescent ATP assay. Cell line 222-2F12 responded to GL 14 at 3 μg/mL, and not to the other non-canonical GA peptides tested. The response to GMA in comparison to COP at the 10 μg/mL dose in this assay was 99.4%.
The cultures were restimulated on days 46, 56, 67 and 75. On Day 56, cell lines 222-2D8, 222-1H12, 222-2F12, 222-2B8, 222-105, 222-2B11, and 222-2E1 again were tested for reactivity to stimulation with 1, 3, or 10 μg/mL of GMA or COP in a proliferation assay. ATP levels were measured in all seven cell lines at 48 hours (results in FIGS. 5A-G) after stimulation. The control in the GMA series was no antigen, and the control in the COP series was MBP. […]

Substance: glatiramer acetate [GMA]
- Mean, ATP proliferation assay (Donor 3 GMA T-Cell Lines; T-cell line 165-E9G, 10 μg/mL, Day 40): 24935
- Proliferation (luminescent ATP assay), Mean (Donor 3 GMA T-Cell Lines; T-cell line 165-E9G, 30 μg/mL antigen, Day 50 of culturing, No Antigen Value 1742): 39472 RLU
- Proliferation (luminescent ATP assay), Mean (Donor 3 GMA T-Cell Lines; T-cell line 165-E9G, 10 μpg/mL antigen, Day 50 of culturing, No Antigen Value 1742): 37352 RLU
- Mean, ATP proliferation assay (Donor 3 GMA T-Cell Lines; T-cell line 165-F2G, 1 μg/mL, Day 40): 1753
- Mean, ATP proliferation assay (Donor 3 GMA T-Cell Lines; T-cell line 165-F2G, 3 μg/mL, Day 40): 1422
- Mean, ATP proliferation assay (Donor 3 GMA T-Cell Lines; T-cell line 165-F2G, 10 μg/mL, Day 40): 1502
- Mean, ATP proliferation assay (Donor 3 GMA T-Cell Lines; T-cell line 165-F5G, 1 μg/mL, Day 40): 5669
- Proliferation (luminescent ATP assay), Mean (Donor 3 GMA T-Cell Lines; T-cell line 165-F5G, 1.25 μg/mL antigen, autologous B-LCL): 1071 RLU
- Proliferation (luminescent ATP assay), Mean (Donor 3 GMA T-Cell Lines; T-cell line 165-F5G, 2.5 μg/mL antigen, autologous B-LCL): 19012 RLU
- Mean, ATP proliferation assay (Donor 3 GMA T-Cell Lines; T-cell line 165-F5G, 3 μg/mL, Day 40): 14024
- Proliferation (luminescent ATP assay), Mean (Donor 3 GMA T-Cell Lines; T-cell line 165-F5G, 5 μg/mL antigen, autologous B-LCL): 45384 RLU
- Proliferation (luminescent ATP assay), Mean (Donor 3 GMA T-Cell Lines; T-cell line 165-F5G, 10 μg/mL antigen, autologous B-LCL): 48029 RLU
- Mean, ATP proliferation assay (Donor 3 GMA T-Cell Lines; T-cell line 165-F5G, 10 μg/mL, Day 40): 23774
- Mean, ATP proliferation assay (Donor 3 GMA T-Cell Lines; T-cell line 165-F8G, 1 μg/mL, Day 40): 4804
- Mean, ATP proliferation assay (Donor 3 GMA T-Cell Lines; T-cell line 165-F8G, 3 μg/mL, Day 40): 6841
- Mean, ATP proliferation assay (Donor 3 GMA T-Cell Lines; T-cell line 165-F8G, 10 μg/mL, Day 40): 11880
- Proliferation (luminescent ATP assay), Mean (Donor 3 GMA T-Cell Lines; T-cell line 165-F10G, 1 μg/mL antigen, Day 50 of culturing, No Antigen Value 3752): 4734 RLU
- Mean, ATP proliferation assay (Donor 3 GMA T-Cell Lines; T-cell line 165-F10G, 1 μg/mL, Day 40): 6015
- Proliferation (luminescent ATP assay), Mean (Donor 3 GMA T-Cell Lines; T-cell line 165-F10G, 1.25 μg/mL antigen, autologous B-LCL): 5731 RLU
- Proliferation (luminescent ATP assay), Mean (Donor 3 GMA T-Cell Lines; T-cell line 165-F10G, 2.5 μg/mL antigen, autologous B-LCL): 38905 RLU
- Proliferation (luminescent ATP assay), Mean (Donor 3 GMA T-Cell Lines; T-cell line 165-F10G, 3 μg/mL antigen, Day 50 of culturing, No Antigen Value 3752): 35371 RLU
- Mean, ATP proliferation assay (Donor 3 GMA T-Cell Lines; T-cell line 165-F10G, 3 μg/mL, Day 40): 17900
- Proliferation (luminescent ATP assay), Mean (Donor 3 GMA T-Cell Lines; T-cell line 165-F10G, 5 μg/mL antigen, autologous B-LCL): 66355 RLU
- Proliferation (luminescent ATP assay), Mean (Donor 3 GMA T-Cell Lines; T-cell line 165-F10G, 10 μg/mL antigen, Day 50 of culturing, No Antigen Value 3752): 58913 RLU
- Proliferation (luminescent ATP assay), Mean (Donor 3 GMA T-Cell Lines; T-cell line 165-F10G, 10 μg/mL antigen, autologous B-LCL): 57329 RLU
- Mean, ATP proliferation assay (Donor 3 GMA T-Cell Lines; T-cell line 165-F10G, 10 μg/mL, Day 40): 30198
- Proliferation (luminescent ATP assay), Mean (Donor 3 GMA T-Cell Lines; T-cell line 165-F10G, 30 μg/mL antigen, Day 50 of culturing, No Antigen Value 3752): 59173 RLU
- Proliferation (luminescent ATP assay), Mean (Donor 3 GMA T-Cell Lines; T-cell line 165-H11G, 1 μg/mL antigen, Day 50 of culturing, No Antigen Value 1485): 9569 RLU
- Mean, ATP proliferation assay (Donor 3 GMA T-Cell Lines; T-cell line 165-H11G, 1 μg/mL, Day 40): 10205
- Proliferation (luminescent ATP assay), Mean (Donor 3 GMA T-Cell Lines; T-cell line 165-H11G, 1.25 μg/mL antigen, autologous B-LCL): 8 RLU
- Proliferation (luminescent ATP assay), Mean (Donor 3 GMA T-Cell Lines; T-cell line 165-H11G, 2.5 μg/mL antigen, autologous B-LCL): 33793 RLU
- Proliferation (luminescent ATP assay), Mean (Donor 3 GMA T-Cell Lines; T-cell line 165-H11G, 3 μg/mL antigen, Day 50 of culturing, No Antigen Value 1485): 46539 RLU
- Mean, ATP proliferation assay (Donor 3 GMA T-Cell Lines; T-cell line 165-H11G, 3 μg/mL, Day 40): 27515
- Proliferation (luminescent ATP assay), Mean (Donor 3 GMA T-Cell Lines; T-cell line 165-H11G, 5 μg/mL antigen, autologous B-LCL): 70949 RLU
- Proliferation (luminescent ATP assay), Mean (Donor 3 GMA T-Cell Lines; T-cell line 165-H11G, 10 μg/mL antigen, Day 50 of culturing, No Antigen Value 1485): 49104 RLU
- Proliferation (luminescent ATP assay), Mean (Donor 3 GMA T-Cell Lines; T-cell line 165-H11G, 10 μg/mL antigen, autologous B-LCL): 72728 RLU
- Mean, ATP proliferation assay (Donor 3 GMA T-Cell Lines; T-cell line 165-H11G, 10 μg/mL, Day 40): 44067
- Proliferation (luminescent ATP assay), Mean (Donor 3 GMA T-Cell Lines; T-cell line 165-H11G, 30 μg/mL antigen, Day 50 of culturing, No Antigen Value 1485): 32179 RLU
- responsiveness in proliferation assay (Donor 3 GMA T-Cell Lines; all 8 Donor 3 GMA cell lines tested, Day 32, 10 μg/mL (Table 19)): responsive
- responsiveness in proliferation assay (Donor 3 GMA T-Cell Lines; eleven of the 12 cell lines (all but F2G), Day 40, 1, 3 or 10 μg/mL (Table 21)): responsive
- response to GMA in comparison to COP (Donor 1 COP T-Cell Lines; 222-2D8, Day 56 (Table 6)): 103.4%
- response to GMA in comparison to COP (Donor 1 COP T-Cell Lines; 222-2D8, second assay (Table 7)): 107.1%
- ATP Proliferation Assay, Mean (Donor 1 COP T-Cell Lines; 222-2D8, 1 μg/mL (Table 7)): 2078
- ATP Proliferation Assay, Mean (Donor 1 COP T-Cell Lines; 222-2D8, 3 μg/mL (Table 7)): 149752
- ATP Proliferation Assay, Mean (Donor 1 COP T-Cell Lines; 222-2D8, 10 μg/mL (Table 7)): 156417
- ATP proliferation assay (Donor 1 COP T-Cell Lines; 222-2D8, 1 μg/mL (Table 6)): 4369
- ATP proliferation assay (Donor 1 COP T-Cell Lines; 222-2D8, 3 μg/mL (Table 6)): 7480
- ATP proliferation assay (Donor 1 COP T-Cell Lines; 222-2D8, 10 μg/mL (Table 6)): 12793
- response to GMA in comparison to COP (Donor 1 COP T-Cell Lines; 222-2F12 (printed 222-2F1), Day 56 (Table 8)): 85.1%
- response to GMA in comparison to COP (Donor 1 COP T-Cell Lines; 222-2F12, Day 56 (Table 9)): 99.4%
- luminescent ATP proliferation assay, mean (Donor 1 COP T-Cell Lines; 222-2F12, 3 μg/mL): 232779
- luminescent ATP proliferation assay, mean (Donor 1 COP T-Cell Lines; 222-2F12, 10 μg/mL): 228761
- luminescent ATP proliferation assay, mean (Donor 1 COP T-Cell Lines; 222-2F12, 30 μg/mL): 125994
- ATP proliferation assay (Donor 1 COP T-Cell Lines; 222-2F12, 1 μg/mL (Table 8)): 6500
- ATP proliferation assay (Donor 1 COP T-Cell Lines; 222-2F12, 3 μg/mL (Table 8)): 8520
- ATP proliferation assay (Donor 1 COP T-Cell Lines; 222-2F12, 10 μg/mL (Table 8)): 12382
- Proliferation (luminescent ATP assay), Mean (Donor 1 COP T-Cell Lines; T-cell line 222-1H12, 3 μg/mL antigen, 0 μg/mL 5974): 141486 RLU
- Proliferation (luminescent ATP assay), Mean (Donor 1 COP T-Cell Lines; T-cell line 222-1H12, 10 μg/mL antigen, 0 μg/mL 5974): 167193 RLU
- Proliferation (luminescent ATP assay), Mean (Donor 1 COP T-Cell Lines; T-cell line 222-1H12, 30 μg/mL antigen, 0 μg/mL 5974): 82376 RLU
- Proliferation (luminescent ATP assay), Mean (Donor 1 COP T-Cell Lines; T-cell line 222-2F12, 3 μg/mL antigen, 0 μg/mL 5673): 232779
- Proliferation (luminescent ATP assay), Mean (Donor 1 COP T-Cell Lines; T-cell line 222-2F12, 10 μg/mL antigen, 0 μg/mL 5673): 228761
- Proliferation (luminescent ATP assay), Mean (Donor 1 COP T-Cell Lines; T-cell line 222-2F12, 30 μg/mL antigen, 0 μg/mL 5673): 125994
